Experimental data taken from patent US20220128542A1, “TREATMENT EFFICIENCY EVALUATION” (TX MEDIC AB, priority 2019, published 2022).

Test system: brain of rats subjected to severe traumatic brain injury (sTBI)
Experiment: Ingenuity pathway analysis of differentially regulated genes after sTBI (canonical pathways, diseases and molecular functions; Example 4)
Set-up: species or system rat
Protocol: Pathway analysis of the differentially regulated genes was carried out using the Ingenuity pathway analysis package. The analysis was performed with special reference to pathways and molecular processes and diseases associated with neurodegenerative disease, including dementia, Alzheimer's disease, ALS, TBI and stroke, and with scarring and fibrosis, including glaucoma and normal pressure hydrocephalus (NPH) after subarachnoid haemorrhage.

[1] = TBI + 5 mg/kg LMW-DS, 7 days after TBI
[2] = TBI + 15 mg/kg LMW-DS, 2 days after TBI
[3] = TBI + 15 mg/kg LMW-DS, 7 days after TBI, relative to control
[4] = TBI + 15 mg/kg LMW-DS, 7 days after TBI
[5] = TBI + 15 mg/kg repeat dose LMW-DS, 7 days after TBI
[6] = TBI + 15 mg/kg repeated dose LMW-DS, 7 days after TBI, relative to control
[7] = TBI + 15 mg/kg repeated dose LMW-DS, 7 days after TBI

With sodium salt of dextran sulfate [LMW-DS] the “Ingenuity canonical pathway: Acute Phase Response Signaling” value [1] was “Activated”, the “Ingenuity canonical pathway: Adrenomedullin signaling pathway” value [1] was “Inhibited” and the “Ingenuity canonical pathway: Cardiac Hypertrophy Signaling” value [1] was “Activated”. The “Ingenuity canonical pathway: Colorectal Cancer Metastasis Signaling” value [1] was “Inhibited”, the “Ingenuity canonical pathway: Dendritic Cell Maturation” value [1] was “Activated” and the “Ingenuity canonical pathway: ERK5 Signaling” value [1] was “Inhibited”. The “Ingenuity canonical pathway: ERK/MAPK Signaling” value [1] was “Activated”, the “Ingenuity canonical pathway: Endothelin-1 Signaling” value [1] was “Activated” and the “Ingenuity canonical pathway: Fcγ Receptor-mediated Phagocytosis in Macrophages and Monocytes” value [1] was “Activated”. The “Ingenuity canonical pathway: GNRH Signaling” value [1] was “Activated”, the “Ingenuity canonical pathway: HMGB1 Signaling” value [1] was “Activated” and the “Ingenuity canonical pathway: IL-1 Signaling” value [1] was “Activated”. For the same substance, the “Ingenuity canonical pathway: IL-6 Signaling” value [1] was “Activated”, the “Ingenuity canonical pathway: IL-8 Signaling” value [1] was “Activated” and the “Ingenuity canonical pathway: ILK Signaling” value [1] was “Activated”. For the same substance, the “Ingenuity canonical pathway: Leukocyte Extravasation Signaling” value [1] was “Activated”, the “Ingenuity canonical pathway: Neuroinflammation Signaling Pathway” value [1] was “Activated” and the “Ingenuity canonical pathway: Osteoarthritis Pathway” value [1] was “Inhibited”. The “Ingenuity canonical pathway: PI3K Signaling in B Lymphocytes” value [1] was “Activated”, the “Ingenuity canonical pathway: PKCO Signaling in T Lymphocytes” value [1] was “Activated” and the “Ingenuity canonical pathway: PPAR Signaling” value [1] was “Inhibited”. The “Ingenuity canonical pathway: Phospholipase C Signaling” value [1] was “Activated”, the “Ingenuity canonical pathway: Production of Nitric Oxide and Reactive Oxygen Species in Macrophages” value [1] was “Activated” and the “Ingenuity canonical pathway: Protein Kinase A Signaling” value [1] was “Inhibited”. For the same substance, the “Ingenuity canonical pathway: Role of NFAT in Regulation of the Immune Response” value [1] was “Activated”, the “Ingenuity canonical pathway: Signaling by Rho Family GTPases” value [1] was “Activated” and the “Ingenuity canonical pathway: Synaptic Long Term Depression” value [1] was “Activated”. The “Ingenuity canonical pathway: Wnt/β-catenin Signaling” value [1] was “Inhibited”, the “Ingenuity canonical pathway: cAMP-mediated signaling” value [1] was “Inhibited” and the “Ingenuity canonical pathway: mTOR Signaling” value [1] was “Activated”. For the same substance, the “Effect on diseases or functions annotation: Apoptosis” value [2] was “Inhibited”, the “Effect on diseases or functions annotation: Apoptosis of tumor cell lines” value [2] was “Activated” and the “Effect on diseases or functions annotation: Behavior” value [2] was “Inhibited”. For the same substance, the “Effect on diseases or functions annotation: Cell death” value [2] was “Inhibited”, the “Effect on diseases or functions annotation: Necrosis” value [2] was “Inhibited” and the “Effect on diseases or functions annotation: Quantity of blood cells” value [2] was “Inhibited”. The “Effect on diseases or functions annotation: Quantity of cells” value [2] was “Inhibited”, the “Effect on diseases or functions annotation: Quantity of lymphocytes” value [2] was “Inhibited” and the “z score, Ingenuity canonical pathway: Endothelin-1 Signaling” value [3] was 1. The “z score, Ingenuity canonical pathway: Phospholipase C Signaling” value [3] was 2, the “z score, Ingenuity canonical pathway: cAMP-mediated signaling” value [3] was 1 and the “Diseases or functions annotation: Abdominal neoplasm” value [4] was “Inhibited”. The “Diseases or functions annotation: Apoptosis” value [4] was “Inhibited”, the “Diseases or functions annotation: Apoptosis of tumor cell lines” value [4] was “Activated” and the “Diseases or functions annotation: Cancer” value [4] was “Activated”. The “Diseases or functions annotation: Carcinoma” value [4] was “Activated”, the “Diseases or functions annotation: Cell death” value [4] was “Inhibited” and the “Diseases or functions annotation: Cell death of tumor cell lines” value [4] was “Activated”. The “Diseases or functions annotation: Cell movement of myeloid cells” value [4] was “Activated”, the “Diseases or functions annotation: Development of carcinoma” value [4] was “Activated” and the “Diseases or functions annotation: Development of connective tissue cells” value [4] was “Activated”. The “Diseases or functions annotation: Development of malignant tumor” value [4] was “Inhibited”, the “Diseases or functions annotation: Differentiation of bone cells” value [4] was “Activated” and the “Diseases or functions annotation: Epithelial neoplasm” value [4] was “Activated”. For the same substance, the “Diseases or functions annotation: Extracranial solid tumor” value [4] was “Activated”, the “Diseases or functions annotation: Frequency of tumor” value [4] was “Inhibited” and the “Diseases or functions annotation: Genitourinary tumor” value [4] was “Activated”. The “Diseases or functions annotation: Incidence of tumor” value [4] was “Inhibited”, the “Diseases or functions annotation: Leukocyte migration” value [4] was “Activated” and the “Diseases or functions annotation: Necrosis” value [4] was “Activated”. For the same substance, the “Diseases or functions annotation: Non-melanoma solid tumor” value [4] was “Activated”, the “Diseases or functions annotation: Quantity of cells” value [4] was “Activated” and the “Diseases or functions annotation: Solid tumor” value [4] was “Activated”. For the same substance, the “Diseases or functions annotation: Transcription” value [4] was “Activated”, the “Diseases or functions annotation: Transcription of RNA” value [4] was “Activated” and the “Diseases or functions annotation: Tumorigenesis of epithelial neoplasm” value [4] was “Activated”. For the same substance, the “Diseases or functions annotation: Tumorigenesis of tissue” value [4] was “Activated”, the “Ingenuity canonical pathway: Endothelin-1 Signaling” value [4] was “Activated” and the “Ingenuity canonical pathway: Phospholipase C Signaling” value [4] was “Activated”. For the same substance, the “Ingenuity canonical pathway: cAMP-mediated signaling” value [4] was “Activated”, the “Diseases or functions annotation: Abdominal cancer” value [5] was “Inhibited” and the “Diseases or functions annotation: Abdominal neoplasm” value [5] was “Inhibited”. The “Diseases or functions annotation: Adenocarcinoma” value [5] was “Inhibited”, the “Diseases or functions annotation: Branching of cells” value [5] was “Activated” and the “Diseases or functions annotation: Carcinoma” value [5] was “Inhibited”. The “Diseases or functions annotation: Cell movement” value [5] was “Activated”, the “Diseases or functions annotation: Cell-cell contact” value [5] was “Activated” and the “Diseases or functions annotation: Concentration of hormone” value [5] was “Activated”. The “Diseases or functions annotation: Concentration of lipid” value [5] was “Inhibited”, the “Diseases or functions annotation: Dendritic growth/branching” value [5] was “Inhibited” and the “Diseases or functions annotation: Development of connective tissue cells” value [5] was “Inhibited”. For the same substance, the “Diseases or functions annotation: Development of gap junctions” value [5] was “Activated”, the “Diseases or functions annotation: Development of neurons” value [5] was “Activated” and the “Diseases or functions annotation: Developmental process of synapse” value [5] was “Activated”. The “Diseases or functions annotation: Differentiation of bone cells” value [5] was “Inhibited”, the “Diseases or functions annotation: Differentiation of connective tissue cells” value [5] was “Inhibited” and the “Diseases or functions annotation: Digestive organ tumor” value [5] was “Inhibited”. The “Diseases or functions annotation: Digestive system cancer” value [5] was “Inhibited”, the “Diseases or functions annotation: Epithelial neoplasm” value [5] was “Inhibited” and the “Diseases or functions annotation: Extracranial solid tumor” value [5] was “Activated”. For the same substance, the “Diseases or functions annotation: Formation of cellular protrusions” value [5] was “Activated”, the “Diseases or functions annotation: Formation of intercellular junctions” value [5] was “Activated” and the “Diseases or functions annotation: Gastrointestinal tumor” value [5] was “Inhibited”. The “Diseases or functions annotation: Hematologic cancer” value [5] was “Inhibited”, the “Diseases or functions annotation: Hematopoietic neoplasm” value [5] was “Inhibited” and the “Diseases or functions annotation: Learning” value [5] was “Activated”. The “Diseases or functions annotation: Microtubule dynamics” value [5] was “Activated”, the “Diseases or functions annotation: Migration of cells” value [5] was “Activated” and the “Diseases or functions annotation: Morphogenesis of neurons” value [5] was “Activated”. The “Diseases or functions annotation: Neurotransmission” value [5] was “Activated”, the “Diseases or functions annotation: Non-hematological solid tumor” value [5] was “Inhibited” and the “Diseases or functions annotation: Non-melanoma solid tumor” value [5] was “Inhibited”. For the same substance, the “Diseases or functions annotation: Nonhematologic malignant neoplasm” value [5] was “Inhibited”, the “Diseases or functions annotation: Obesity” value [5] was “Activated” and the “Diseases or functions annotation: Organization of cytoplasm” value [5] was “Activated”. The “Diseases or functions annotation: Organization of cytoskeleton” value [5] was “Activated”, the “Diseases or functions annotation: Quantity of Ca^2+” value [5] was “Activated” and the “Diseases or functions annotation: Quantity of carbohydrate” value [5] was “Inhibited”. For the same substance, the “Diseases or functions annotation: Quantity of cells” value [5] was “Activated”, the “Diseases or functions annotation: Seizure disorder” value [5] was “Activated” and the “Diseases or functions annotation: Size of body” value [5] was “Activated”. The “Diseases or functions annotation: Skin lesion” value [5] was “Activated”, the “Diseases or functions annotation: Transport of ion” value [5] was “Activated” and the “Diseases or functions annotation: Transport of metal” value [5] was “Activated”. For the same substance, the “Diseases or functions annotation: Transport of molecule” value [5] was “Activated”, the “Diseases or functions annotation: Tumorigenesis of tissue” value [5] was “Inhibited” and the “z score, Ingenuity canonical pathway: 3-phosphoinositide Degradation” value [6] was 2. The “z score, Ingenuity canonical pathway: Acute Phase Response Signaling” value [6] was −0.447, the “z score, Ingenuity canonical pathway: Adrenomedullin signaling pathway” value [6] was −0.378 and the “z score, Ingenuity canonical pathway: B Cell Receptor Signaling” value [6] was −0.447. The “z score, Ingenuity canonical pathway: Ephrin Receptor Signaling” value [6] was 2.236, the “z score, Ingenuity canonical pathway: Fc Epsilon RI Signaling” value [6] was −1 and the “z score, Ingenuity canonical pathway: G Beta Gamma Signaling” value [6] was 2.236. For the same substance, the “z score, Ingenuity canonical pathway: NF-κB Signaling” value [6] was 0.447, the “z score, Ingenuity canonical pathway: Opioid Signaling Pathway” value [6] was 0.816 and the “z score, Ingenuity canonical pathway: Role of NFAT in Cardiac Hypertrophy” value [6] was 0.447. For the same substance, the “z score, Ingenuity canonical pathway: Role of NFAT in Regulation of the Immune Response” value [6] was 2.236, the “z score, Ingenuity canonical pathway: Signaling by Rho Family GTPases” value [6] was 1 and the “z score, Ingenuity canonical pathway: Superpathway of Inositol Phosphate Compounds” value [6] was 2. The “z score, Ingenuity canonical pathway: Synaptic Long Term Depression” value [6] was 1.342, the “Ingenuity canonical pathway: 3-phosphoinositide Degradation” value [7] was “Activated” and the “Ingenuity canonical pathway: Acute Phase Response Signaling” value [7] was “Inhibited”. The “Ingenuity canonical pathway: Adrenomedullin signaling pathway” value [7] was “Inhibited”, the “Ingenuity canonical pathway: B Cell Receptor Signaling” value [7] was “Inhibited” and the “Ingenuity canonical pathway: Ephrin Receptor Signaling” value [7] was “Activated”. The “Ingenuity canonical pathway: Fc Epsilon RI Signaling” value [7] was “Inhibited”, the “Ingenuity canonical pathway: G Beta Gamma Signaling” value [7] was “Activated” and the “Ingenuity canonical pathway: NF-κB Signaling” value [7] was “Activated”. The “Ingenuity canonical pathway: Opioid Signaling Pathway” value [7] was “Activated”, the “Ingenuity canonical pathway: Role of NFAT in Cardiac Hypertrophy” value [7] was “Activated” and the “Ingenuity canonical pathway: Role of NFAT in Regulation of the Immune Response” value [7] was “Activated”. The “Ingenuity canonical pathway: Signaling by Rho Family GTPases” value [7] was “Activated”, the “Ingenuity canonical pathway: Superpathway of Inositol Phosphate Compounds” value [7] was “Activated” and the “Ingenuity canonical pathway: Synaptic Long Term Depression” value [7] was “Activated”.
